Experiments:
α1 adrenergic receptor = test: Displacement of specific binding of [3H]prazosin from rat forebrain membranes; settings: 0.2 nM [3H]prazosin, affinity defined as IC50 for displacement of specific binding
Description: Compounds of the formula I have selectivity for NR^2B subunit-containing NMDA receptors over α1-adrengergic receptors. Affinity for the NR^2B subunit containing NMDA receptor is measured as the IC50 for displacement of specific binding of racemic [^3H] (+)-(1S, 2S)-1-(4-hydroxy-phenyl)-2-(4-hydroxy4-phenylpiperidino)-1-propanol from rat forebrain membranes (described above). Affinity for the α1-adrengergic receptor is defined as the IC50 for displacement of specific binding of racemic [^3H]prazosin from rat brain membranes, measured as described by Greengrass and Bremner (Binding Characteristics of [^3H]prazosin to Rat Brain α-Adrenergic Receptors, European Journal of Pharmacology, 55, 323-326, (1979)).
Forebrains of adult male Sprague Dawley rats are homogenized in 20 volumes of ice cold 50 mM Tris/HCl buffer (pH 7.7). The homogenate is centrifuged at 50,000×g for 10 minutes at 4° C. The pellet is resuspended and centrifuged under identical conditions and the final pellet is resuspended in 80 volumes of 50 mM Tris/HCl (pH 8.0) at 4° C.
For binding assays, compounds under study are added at various concentrations to 500 μg membrane protein in 1 ml of 50 mM Tris/HCl buffer, followed by [^3H]prazosin (Amersham, specific activity 33 Ci/mmol, 0.2 nM final concentration). Following incubation for 30 min at 25° C. in a shaking water bath, samples are filtered onto Whatman GFB glass fiber filters using a MB-48R Cell Harvester (Brandel Research and Development Laboratories, Gaithersburg Md.). Filters are washed three times for 10s with ice cold Tris HCl buffer and the radioactivity trapped on the filter quantified by liquid scintillation spectroscopy. Nonspecific binding is determined in parallel incubations containing 100 nM prazosin. Specific binding is defined as total binding minus nonspecific binding.

[1] = target: T1, NR2B subunit containing NMDA receptor (Rattus norvegicus, UniProt P35439+Q00960); test: Displacement of specific binding of racemic [3H](+)-(1S,2S)-1-(4-hydroxy-phenyl)-2-(4-hydroxy-4-phenylpiperidino)-1-propanol ([3H]CP-101,606) from rat forebrain membranes; settings: ratio of the two binding IC50s; selectivity for NR2B NMDA receptor over α1 adrenergic receptor; greater than three is considered selective
T1 construct: (+)-(1S, 2S)-1-(4-hydroxy-phenyl)-2-(4-hydroxy4-phenylpiperidino)-1-propanol from rat forebrain membranes; from tissue; host or cells: forebrain membranes of adult male CD rats
Description: This affinity is assessed in a radioligand binding assay as described below.
The binding of racemic [^3H] […] Forebrains of adult male CD rats are homogenized in 0.32M sucrose at 4° C. The crude nuclear pellet is removed by centrifugation at 1,000×g for 10 minutes, and the supernatant centrifuged at 17,000×g for 25 minutes. The resulting pellet is resuspended in 5 mM Tris acetate pH 7.4 at 4° C. for 10 minutes to lyse cellular particles and again centrifuged at 17,000×g. The resulting pellet is washed twice in Tris acetate, resuspended at 10 mg protein/ml and stored at −20° C. until use.
For binding assays, membranes are thawed, homogenized, and diluted to 0.5 mg protein/ml with 50 mM Tris HCl, pH 7.4. Compounds under study are added at various concentrations followed by racemic [^3H] […] Following incubation for 20 min at 30° C. in a shaking water bath, samples are filtered onto Whatman GFB glass fiber filters using a MB-48R Cell Harvester (Brandel Research and Development Laboratories, Gaithersburg Md.). Filters are washed for 10 s with ice cold Tris HCl buffer and the radioactivity trapped on the filter quantified by liquid scintillation spectroscopy. […] Specific binding is defined as total binding minus nonspecific binding.
Affinity for the NR^2B subunit containing NMDA receptor is measured as the IC50 for displacement of specific binding of racemic [^3H] […] Affinity for the α1-adrengergic receptor is defined as the IC50 for displacement of specific binding of racemic [^3H]prazosin from rat brain membranes, measured as described by Greengrass and Bremner (Binding Characteristics of [^3H]prazosin to Rat Brain α-Adrenergic Receptors, European Journal of Pharmacology, 55, 323-326, (1979)).

T1 sequence (Q00960 27-1482, other chains not shown): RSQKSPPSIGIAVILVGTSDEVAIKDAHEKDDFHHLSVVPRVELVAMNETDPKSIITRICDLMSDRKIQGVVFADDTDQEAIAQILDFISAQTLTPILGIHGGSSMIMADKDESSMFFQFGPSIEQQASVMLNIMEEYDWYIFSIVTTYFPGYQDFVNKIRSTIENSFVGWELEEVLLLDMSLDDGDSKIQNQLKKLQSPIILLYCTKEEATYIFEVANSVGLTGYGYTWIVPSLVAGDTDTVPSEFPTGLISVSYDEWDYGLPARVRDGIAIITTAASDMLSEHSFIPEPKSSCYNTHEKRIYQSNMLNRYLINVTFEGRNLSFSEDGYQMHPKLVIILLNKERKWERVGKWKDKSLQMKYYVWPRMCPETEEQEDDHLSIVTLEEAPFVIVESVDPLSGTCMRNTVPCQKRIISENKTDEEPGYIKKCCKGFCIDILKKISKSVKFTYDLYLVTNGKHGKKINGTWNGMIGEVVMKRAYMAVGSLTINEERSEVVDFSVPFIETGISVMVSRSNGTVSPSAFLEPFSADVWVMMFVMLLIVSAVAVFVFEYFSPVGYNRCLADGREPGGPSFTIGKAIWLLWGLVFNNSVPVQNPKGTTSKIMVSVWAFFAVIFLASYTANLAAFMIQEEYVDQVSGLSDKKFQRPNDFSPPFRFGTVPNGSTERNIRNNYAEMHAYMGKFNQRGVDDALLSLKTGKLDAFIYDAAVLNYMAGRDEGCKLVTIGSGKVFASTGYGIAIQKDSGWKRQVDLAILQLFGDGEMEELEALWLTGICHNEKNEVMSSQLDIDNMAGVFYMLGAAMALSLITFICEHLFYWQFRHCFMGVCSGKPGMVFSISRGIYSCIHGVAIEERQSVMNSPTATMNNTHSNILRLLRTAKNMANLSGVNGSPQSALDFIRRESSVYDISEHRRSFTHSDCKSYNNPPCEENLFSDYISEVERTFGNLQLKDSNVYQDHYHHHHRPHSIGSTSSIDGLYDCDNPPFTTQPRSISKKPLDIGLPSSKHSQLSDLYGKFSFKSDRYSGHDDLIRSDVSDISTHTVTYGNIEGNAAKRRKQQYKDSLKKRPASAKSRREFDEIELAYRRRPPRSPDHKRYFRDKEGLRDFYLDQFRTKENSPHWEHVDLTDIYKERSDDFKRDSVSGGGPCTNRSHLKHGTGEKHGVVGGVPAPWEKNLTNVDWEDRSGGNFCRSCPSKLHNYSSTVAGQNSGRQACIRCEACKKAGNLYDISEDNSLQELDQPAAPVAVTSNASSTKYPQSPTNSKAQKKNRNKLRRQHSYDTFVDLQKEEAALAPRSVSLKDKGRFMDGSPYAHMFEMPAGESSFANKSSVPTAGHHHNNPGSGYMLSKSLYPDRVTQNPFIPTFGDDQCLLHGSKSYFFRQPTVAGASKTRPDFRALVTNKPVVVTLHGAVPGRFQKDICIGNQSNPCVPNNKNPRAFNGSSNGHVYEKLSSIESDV

| SMILES | IC50 (α1 adrenergic receptor) | melting point | Ratio [^3H]Prazosin/[^3H](+)-(1S, 2S)-1-(4-hydroxy-phenyl)-2-(4-hydroxy-4-phenylpiperidino)-1-propanol [1] |
| --- | --- | --- | --- |
| Cc1cc([C@@H](O)[C@@H](C)N2CCC(O)(c3ccc(F)cc3)CC2)ccc1O (relative stereo) [(1R*, 2R*)-1-(4-hydroxy-3-methylphenyl)-2-(4-(4-fluorophenyl)-4-hydroxypiperidin-1-yl)-propan-1-ol-mesylate] | 10 µM | – | – |
| Oc1ccc2c(c1)OCC(N1CCC(O)(c3ccc(F)cc3)CC1)[C@H]2O (stereo in doubt) | – | 159 to 160 °C | – |
| COc1cc([C@H](O)[C@H](C)N2CCC(O)(c3ccccc3)CC2)ccc1O [1S, 2S 1-(4-hydroxy-3-methoxyphenyl)-2-(4-hydroxy-4-phenyl-piperidin-1-yl)-propan-1-ol] | 8.1 µM | – | 86 |
| C[C@@H]([C@@H](O)c1ccc(O)cc1)N1CCC(O)(c2ccccc2)CC1 [(1S,2S)-1-(4-hydroxyphenyl)-2-(4-hydroxy-4-phenylpiperidino)-1-propanol] | 19.5 µM | – | – |
| Oc1ccc2c(c1)OC[C@@H](N1CCC(O)(c3ccc(F)cc3)CC1)[C@H]2O [(3R,4S)-3-[4-(4-fluorophenyl)-4-hydroxy-piperidin-1-yl]-chroman-4,7-diol] | > 10 µM | – | ≧555 |
| OC(CN1CCC(Cc2ccc(F)cc2)CC1)c1ccc(Cl)cc1 (stereo not drawn) [Eliprodil, reference compound] | 0.98 ± 0.22 µM | – | 2.2 |

— patent US6667317B2, “Pharmaceutical combinations for the treatment of stroke and traumatic brain injury” (Pfizer Inc, priority 2000, dated 2003)
